In patent US20120220577A1, “GLYCINE B ANTAGONISTS” (Merz Pharma GmbH & Co KgaA, priority 2009, published 2012):

Legend:
[1] = molecular target: T1, glycine binding pocket of the NMDA receptor (Rattus norvegicus, UniProt P35439); test: [3H]MDL-105,519 displacement studies (rat cortical membranes); settings: displacement of 2 nM [3H]-MDL-105,519, rat cortical membranes; read-out: NMDA-MDL 105519-r-CTX - IC50
T1 construct: For isolation of the cell membranes, the cortices are homogenized; from tissue; host or cells: rat cerebral cortex membranes (male Sprague-Dawley)

[2] = molecular target: T2, NMDA receptor glycine B site (Rattus norvegicus, UniProt P35439); test: Whole cell patch-clamp recordings, rat hippocampal neurons (NMDA/D-Serine currents); format: cell-based; settings: NMDA 200 μM + D-Serine 1 μM, -70 mV, read-out: NMDA-PC-r-HIC-NAM - IC50
Procedure: (§1) Antagonistic potencies of the test compounds are functionally evaluated using electrophysiological whole cell patch-clamp recordings and/or fluorometric intracellular Ca^2+-imaging (FLIPR) screens.
Cell preparation is performed as described by Parsons, et al. (Neuropharmacology, 1998, 37(6), 719-727). The female Sprague-Dawley rat is anaesthetised by placing in a saturated CO2-euthanasia chamber under further quiet CO2-influx. Under these conditions the rat loses consciousness after a few seconds and is then sacrificed by cervical dislocation. After opening the abdominal cavity, embryos (E20) are removed and stored in ice cold Ca^2+- and Mg^2+-free Hank's Buffered Salt Solution (pH 7.3), containing 4 g/l glucose (HBSS-CMF). Hippocampi are then isolated from the brains of at least 8 embryos after decapitation, transferred into ice cold HBSS-CMF and washed 3 to 4 times.
Hippocampi are pre-incubated for 8 min with a 0.66% trypsin (Sigma-Aldrich) and 0.1% (20 U/ml) DNAase solution (Sigma-Aldrich) in Ca^2+-free Phosphate Buffered Saline (PBS-CF) and washed 3 times with HBSS-CMF. Cells are then mechanically dissociated by trituration in a PBS-CF solution containing 0.05% (10 U/ml) DNAase and 0.3% of the trypsin inhibitor ovomucoid (all from Sigma-Aldrich). The cells are then centrifuged at 180×g for 10 minutes, and the cell pellet re-suspended in basal Minimum essential medium (MEM, Invitrogen, Karlsruhe, Germany), again carefully triturated to ensure maximal dissociation and finally plated in the flexiPERM inserts (Thermo Fisher Scientific, Langenselbold, Germany) at a density of 15×10^3 cells/cm^2 (0.5 ml/insert) onto poly-DL-ornithine (Sigma) and mouse laminin (Invitrogen) pre-coated plastic petri dishes. After 1 hour the cells become attached to the bottom of the dish and the inserts may be removed. The cells are then nourished with 2 ml MEM supplemented with 5% foetal calf serum (FCS) and 5% horse serum and incubated at 37° C. with 95% air and 5% CO2 at 95% humidity. After 4 days in vitro (DIV) further glial mitosis is inhibited by adding 10 μl of AraC (5 μM endconcentration). The medium is completely exchanged after an additional 2 DIV and again, but only partly (50%), after 8 DIV. The cells are used for electrophysiological recordings after 11-15 DIV.
Cells are visualised using an inverted microscope and selected for patching based upon their position and morphology. Voltage clamp recordings are made in the whole cell configuration of the patch clamp technique at a holding potential of −70 mV with the aid of an EPC-10 amplifier in combination with pipette manipulator. Patch clamp pipettes are pulled from borosilicate glass using a horizontal puller (P-97 Puller, Sutter Instruments, USA) and, when filled with intracellular solution, have resistances of 1-4 MΩ.
Solutions are delivered via a home-made gravity driven very fast perfusion system (<10 ms) including valves to switch flow on and off in combination with a stepper motor-driven double-barrelled theta glass application pipette in order to expose cells to either agonist-free or agonist-containing solutions in presence or absence of antagonist.
The intracellular solution used consists of: 120 mM CsCl, 10 mM EGTA, 1 mM MgCl2, 200 μM CaCl2, 10 mM glucose and 22 mM tetraethyl ammonium chloride (TEA-CL). The corresponding extracellular bath solution contains: 140 mM NaCl, 3 mM KCl, 10 mM glucose, 10 mM HEPES, 1.5 mM CaCl2 and 4.5 mM sucrose (all from Sigma-Aldrich) pH 7.3, and is supplemented with 0.3 μM tetrodotoxin (TTX, Tocris, Bristol, U.K.) to block voltage-activated sodium channels and 0.25 μM bicuculline (Sigma-Aldrich) to block GABAA receptors. […]

[3] = molecular target: T2, NMDA receptor glycine B site; test: Calcium FLIPR studies, rat cortical neurons (NMDA/D-Serine induced intracellular calcium); format: cell-based; design: Primary neurons are prepared from cortices of embryonal rats at day 17 of pregnancy; endogenous in cells; host or cells: primary rat cortical neurons (E17, 11-13 DIV); settings: rat cortical neurons; stimulation with 30 μM NMDA and 1 μM D-Serine; antagonist pre-incubated 10 min; read-out: NMDA-FLIPR-rCTX-NAM - IC50
Procedure: as §1
Sprague-Dawley rat embryos (E 17) are decapitated and neocortices are dissected, trypsinized and carefully triturated. The cell suspension is plated on poly-D-lysine pre-coated 96-well Plates (Greiner, Frickenhausen, Germany) at a cell density of 55.000 cells/well. The neurons are cultivated in Neurobasal media containing B27-Supplement and […] L-Glutamine (Biochrom) at 37° C. in a humidified atmosphere of 5% CO2/95% air. Medium is exchanged completely at day 4 and to 50% on day 7. At the time of experiments neurons are 11-13 days in vitro.
The increase of intracellular calcium after stimulation with 30 μM NMDA and 1 μM D-Serine is measured using the fluorometric imaging plate reader (FLIPR) and the Calcium-4-Kit (both Molecular Devices, Ismaning, Germany). Prior to addition of agonist or antagonist (5 different concentrations, n=5) the medium is aspirated and cells are washed once before loading with 150 μL of loading buffer (1 h at room temperature), consisting of Ca-4 sensitive dye reconstituted in extracellular bath solution, pH 7.3. Subsequently, plates are transferred to FLIPR to detect increases in intracellular calcium after the addition of agonist, measured as relative fluorescence units (RFU). Antagonists are pre-incubated with the cells for 10 min at room temperature before the addition of the agonist and co-agonist.
The fluorescence signal increase after addition of agonist reflects the increase of intracellular calcium. Inconsistencies in the amount of cells per well are normalised by using the spatial uniformity correction of the FLIPR software (Screenworks, Molecular Devices). The mean of replicated temporal data (n=5) is calculated and used for graphical representation. For the evaluation of the antagonistic potency, the calcium changes in response to different concentrations of antagonist are determined using an area under the curve (AUC) calculation. All responses (RFU-values) are determined as percentage of control (=maximum response at 30 μM NMDA and 1 μM D-Serine). IC50 values are calculated according the four parameter logistic equation using GraFit (Erithacus Software).

Row | SMILES | IC50 [1] | IC50 [2] | melting point | IC50 [3]
1 | O=C(COc1cc(C(=O)O)cc2cc(Cl)cc(Cl)c12)Nc1cccc(OCC(=O)N2CCOCC2)c1 [Example 47, 5,7-Dichloro-4-{[3-(2-morpholin-4-yl-2-oxo-ethoxy)-phenylcarbamoyl]-methoxy}-naphthalene-2-carboxylic acid] | 218 nM | 87 nM | – | –
2 | O=C(O)COc1ccc(NC(=O)COc2cc(C(=O)O)cc3cc(Cl)cc(Cl)c23)c(OCC(=O)O)c1 [Example 83, 4-[(2,4-Bis-carboxymethoxy-phenylcarbamoyl)-methoxy]-5,7-dichloro-naphthalene-2-carboxylic acid] | 252 nM | – | > 220 °C (dec.) | 1320 nM
3 | O=C(COc1cc(C(=O)O)cc2cc(Cl)cc(Cl)c12)Nc1ccccc1-c1nnn[nH]1 [Example 85, 5,7-Dichloro-4-{[2-(1H-tetrazol-5-yl)-phenylcarbamoyl]-methoxy}-naphthalene-2-carboxylic acid] | 233 nM | – | 247 to 248 °C | 930 nM
4 | O=C(O)COc1ccc(CO)cc1NC(=O)COc1cc(C(=O)O)cc2cc(Cl)cc(Cl)c12 [Example 94, 4-[(2-Carboxymethoxy-5-hydroxymethyl-phenylcarbamoyl)-methoxy]-5,7-dichloro-naphthalene-2-carboxylic acid] | 150 nM | – | 185 to 187 °C (dec.) | 1050 nM
5 | O=C(COc1cc(C(=O)O)cc2cc(Cl)cc(Cl)c12)NCc1ccccn1 [Example 103, 5,7-Dichloro-4-{[(pyridin-2-ylmethyl)-carbamoyl]-methoxy}-naphthalene-2-carboxylic acid] | 430 nM | – | > 240 °C (dec.) | 8550 nM
6 | O=C(COc1cc(C(=O)O)cc2cc(Cl)cc(Cl)c12)Nc1cccc(OCc2nnn[nH]2)c1OCc1nnn[nH]1 [Example 128, 4-{[2,3-Bis-(1H-tetrazol-5-ylmethoxy)-phenylcarbamoyl]-methoxy}-5,7-dichloro-naphthalene-2-carboxylic acid] | 1370 nM | – | 246 to 247 °C | –
7 | Cc1nc(NC(=O)COc2cc(C(=O)O)cc3cc(Cl)cc(Cl)c23)sc1C [Example 135, 5,7-Dichloro-4-[(4,5-dimethyl-thiazol-2-ylcarbamoyl)-methoxy]-naphthalene-2-carboxylic acid] | – | – | > 250 °C | –
8 | N#CCc1ccccc1NC(=O)COc1cc(C(=O)O)cc2cc(Cl)cc(Cl)c12 [Example 137, 5,7-Dichloro-4-[(2-cyanomethyl-phenylcarbamoyl)-methoxy]-naphthalene-2-carboxylic acid] | – | – | 246 to 247 °C | –

The next lines start with the values.

Row | IC50 [1] | IC50 [2] | melting point | IC50 [3] | SMILES
9 | 1850 nM | 287 nM | – | – | O=C(COc1cc(C(=O)O)cc2cc(Cl)cc(Cl)c12)Nc1ccc(O)cc1 [Example 8, 5,7-Dichloro-4-[(4-hydroxyphenylcarbamoyl)-methoxy]-naphthalene-2-carboxylic acid]
10 | 440 nM | – | > 250 °C | – | N#Cc1ccccc1NC(=O)COc1cc(C(=O)O)cc2cc(Cl)cc(Cl)c12 [Example 82, 5,7-Dichloro-4-[(2-cyano-phenylcarbamoyl)-methoxy]-naphthalene-2-carboxylic acid]
11 | 393 nM | – | > 230 °C (dec.) | 5820 nM | O=C(O)CCc1cccc(NC(=O)COc2cc(C(=O)O)cc3cc(Cl)cc(Cl)c23)c1 [Example 96, 4-{[3-(2-Carboxy-ethyl)-phenylcarbamoyl]-methoxy}-5,7-dichloro-naphthalene-2-carboxylic acid]
12 | 284 nM | – | > 250 °C | – | NC(=O)c1cccc(NC(=O)COc2cc(C(=O)O)cc3cc(Cl)cc(Cl)c23)c1 [Example 113, 4-[(3-Carbamoyl-phenylcarbamoyl)-methoxy]-5,7-dichloro-naphthalene-2-carboxylic acid]
13 | – | – | > 250 °C | – | NC(=O)c1[nH]cnc1NC(=O)COc1cc(C(=O)O)cc2cc(Cl)cc(Cl)c12 [Example 136, 4-[(5-Carbamoyl-1H-imidazol-4-ylcarbamoyl)-methoxy]-5,7-dichloro-naphthalene-2-carboxylic acid]
